Key:
A-375 = assay: Cytotoxicity against human A375 cells after 24 hrs by MTT assay; assay type: functional, cell-based; settings: A-375, 24 h
HEp-2 = assay: Cytotoxicity against human Hep2 cells after 24 hrs by MTT assay; assay type: functional, cell-based; settings: HEp-2, 24 h
[1] = Cytotoxicity against mouse EAC cells after 24 hrs by MTT assay; assay type: functional, cell-based; settings: Ehrlich
PBMC = assay: Cytotoxicity against human PBMCs after 24 hrs by MTT assay; assay type: cell-based

Row | Structure (SMILES) | IC50 (A-375) [nM] | IC50 (HEp-2) [nM] | IC50 [1] [nM] | IC50 (PBMC) [nM]
1 | COc1cccc2c1C(=O)c1c(O)c3c(c(O)c1C2=O)C[C@@](O)(C(=O)CO)C[C@@H]3O[C@H]1C[C@H](N)[C@H](O)[C@H](C)O1 [DOXORUBICIN] | 10 | 420 | > 10000 | 15500
2 | Cc1cc(O)c2c(c1)C(=O)C(c1c(C)cc3c(c1O)C(=O)C=CC3=O)=CC2=O [DIOSPYRIN] | 820 | 3580 | 840 | 78300
3 | COc1cc(C)cc2c1C(=O)C=C(c1c(C)cc3c(c1OC)C(=O)C=CC3=O)C2=O | 200 | 390 | 650 | 53300
4 | CCOc1cc(C)cc2c1C(=O)C=C(c1c(C)cc3c(c1OCC)C(=O)C(NCCO)=CC3=O)C2=O | 70 | 850 | 30 | 65400
5 | CCOc1cc(C)cc2c1C(=O)C=C(c1c(C)cc3c(c1OCC)C(=O)C=CC3=O)C2=O | 1070 | 2390 | 580 | 55500
6 | COc1cc(C)cc2c1C(=O)C1OC1(c1c(C)cc3c(c1OC)C(=O)C1OC1C3=O)C2=O (stereo unspecified) | 30 | 210 | 90 | 98200
7 | COc1cc(C)cc2c1C(=O)C=C(c1c(C)cc3c(c1OC)C(=O)C(SCCO)=CC3=O)C2=O | 190 | 1730 | 260 | 95500
8 | COc1cc(C)cc2c1C(=O)C=C(c1c(C)cc3c(c1OC)C(=O)C(NCCO)=CC3=O)C2=O | 3180 | 1410 | 1070 | 21800
9 | CCOc1cc(C)cc2c(O)c(-c3c(C)cc4c(O)ccc(O)c4c3OCC)cc(O)c12 | 960 | 1670 | 390 | 59600

— ChEMBL document CHEMBL1147954, “Synthesis and antiproliferative activity of some novel derivatives of diospyrin, a plant-derived naphthoquinonoid” (Bioorg Med Chem, 2007)
